Measurements published in patent publication US20250268894A1, “MACROCYCLE COMPOUNDS FOR THE TREATMENT OF CANCER” (Hoffmann-La Roche Inc., priority 2022, published 2025).

What was measured:
[1] = tested on: phosphorylation of ERK, KRAS G12V in SW620 cells; test: pERK inhibition assay, KRAS G12V in SW620; type: cell-based, human; conditions: Homo sapiens, SW-620, SW620, 4 hours
Method: (§1) This assay is to measure the ability of test compounds in inhibiting the phosphorylation of ERK, the downstream signaling of KRAS G12C in NCI-H358 cells, KRAS G12D in AGS cells, and KRAS G12V in SW620. NCI-H358 (ATCC-CRL5807) cells, AGS (ATCC-CRL-1739) cells, SW620 (ATCC-CCL-227) cells were all grown and maintained using RPMI-1640 medium (Thermo Fisher Scientific) with 10% fetal bovine serum and 1% penicillin/streptomycin. On the day prior to compound addition, cells were plated in tissue culture-treated 96 well plates (Corning-3699) at a density of 30,000 cell/well, 20,000 cell/well, 30,000 cell/well for NCI-H358, AGS and SW620 respectively, and allowed for attachment overnight. Diluted compounds were then added in a final concentration of 0.5% DMSO. After 4 hours of incubation, the medium was removed, 100 μL of 4% formaldehyde was added, and the assay plates were incubated at room temperature for 20 minutes. The plates were then washed once with phosphate buffered saline (PBS), and permeabilized with 100 μL of chilled methanol for 10 minutes. Non-specific antibody binding to the plates was blocked using 50 μL 1X BSA blocking buffer (Thermo-37520, 10-fold dilution by Phosphate-Buffered Saline Tween (PBST) for at least 1 hour at room temperature.
(§2) The amount of phosphor-ERK was determined using an antibody specific for phosphorylated form of ERK. Primary antibody (PERK, CST-4370, Cell Signaling Technology) was diluted 1:300 in blocking buffer, with 50 μL aliquoted to each well, and incubated overnight at 4° C. Cells was washed five times for 5 minutes with PBST. Secondary antibody (HRP-linked anti-rabbit IgG, CST-7074, Cell Signaling Technology) was diluted 1:1000 in blocking buffer, and 50 μL was added to each well and incubated 1-2 hrs at room temperature. Cells was washed […] for 5 minutes with PBST, 100 μL TMB ELISA substrate (abcam-ab171523) were added and gently shake for 20 minutes. 50 μL stop solution (abcam-ab171529) were added, and then read the signal (OD450) by EnVision.
(§3) IC50 was determined by fitting a 4-parameter sigmoidal concentration response model.

KRAS G12C-BRAF complex = KRAS G12C-BRAF complex (Homo sapiens (Human), UniProt P01116+P62937, G12C); test: KRAS-BRAF with CYPA (500 nM) interaction assay (TR-FRET), G12C; type: biochemical
KRAS G12C-BRAF complex, sequence (P01116-2 other isoform, or with tags, fused parts or gaps G12C): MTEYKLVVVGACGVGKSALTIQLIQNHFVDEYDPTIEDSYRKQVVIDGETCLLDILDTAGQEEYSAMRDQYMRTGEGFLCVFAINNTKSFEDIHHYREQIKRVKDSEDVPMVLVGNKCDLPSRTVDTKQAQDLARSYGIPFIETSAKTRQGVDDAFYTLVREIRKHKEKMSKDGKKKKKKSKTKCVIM
KRAS G12C-BRAF complex, sequence (P62937 whole entry): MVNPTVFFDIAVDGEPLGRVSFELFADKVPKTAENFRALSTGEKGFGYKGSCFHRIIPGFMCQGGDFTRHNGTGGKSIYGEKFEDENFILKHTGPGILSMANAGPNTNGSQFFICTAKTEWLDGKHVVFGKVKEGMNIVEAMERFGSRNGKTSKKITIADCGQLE
Method: (§4) Kras-BRAF with CYPA (500 nM) Interaction Assay In this example, TR-FRET was also used to measure the compound or compound-CYPA dependent disruption of the KRAS G12C-BRAF complex. This protocol was also used to measure disruption of KRAS G12D or KRAS G12V binding to BRAF by a compound of the invention, respectively. […] Compound was present in plate wells as a 16-point 3-fold dilution series starting at a final concentration of 10 μM and incubated for 3 hours. […] TR-FRET signal was read on a […] microplate reader (Ex320 nm, Em 665/615 nm). Compounds that facilitate disruption of the KRAS-BRAF complex were identified as those eliciting a decrease in the TR-FRET ratio relative to DMSO control wells.

KRAS G12D-BRAF complex = KRAS G12D-BRAF complex (Homo sapiens (Human), UniProt P01116+P62937, G12D); test: KRAS-BRAF with CYPA (500 nM) interaction assay (TR-FRET), G12D; type: biochemical
KRAS G12D-BRAF complex, sequence (P01116-2 other isoform, or with tags, fused parts or gaps G12D): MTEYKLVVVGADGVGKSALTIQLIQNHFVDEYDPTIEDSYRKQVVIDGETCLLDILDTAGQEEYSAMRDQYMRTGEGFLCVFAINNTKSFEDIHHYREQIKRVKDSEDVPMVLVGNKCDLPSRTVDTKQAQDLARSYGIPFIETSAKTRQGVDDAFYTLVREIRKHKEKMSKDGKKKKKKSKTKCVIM
KRAS G12D-BRAF complex, sequence (P62937 whole entry): as the sequence (P62937 whole entry) above
Method: as §4

AGS cells (KRAS G12D) = test: Cell viability assay (Cell Counting Kit-8), KRAS G12D; type: cell-based; conditions: Homo sapiens, 72 hrs
Method: (§5) The purpose of this cellular assay was to determine the effects of test compounds on the proliferation of human cancer cell lines NCI-H358 (ATCC-CRL5807) cells, AGS (ATCC-CRL-1739) cells, SW620 (ATCC-CCL-227) over a 3-day treatment period by quantifying the amount of NADPH present at endpoint using Cell Counting Kit-8.
(§6) Cells were seeded at 5,000 cells/well (NCI-H358), 2,000 cells/well (AGS)2,000 cells/well (SW620) in 96-well assay plates (Corning-3699) and incubated overnight. On the day of the assay, diluted compounds were then added in a final concentration of 0.5% DMSO. After 72 hrs incubation, a tenth of the volume of cell counting kit 8 (Dnjindo-CK04) was added into each well. Read the signal (OD450 minus OD650) using EnVision after 2 hrs incubation. IC50 was determined by fitting a 4-parameter sigmoidal concentration response model.

KRAS G12V-BRAF complex = KRAS G12V-BRAF complex (Homo sapiens (Human), UniProt P01116+P62937, G12V); test: KRAS-BRAF with CYPA (500 nM) interaction assay (TR-FRET), G12V; type: biochemical
KRAS G12V-BRAF complex, sequence (P01116-2 other isoform, or with tags, fused parts or gaps G12V): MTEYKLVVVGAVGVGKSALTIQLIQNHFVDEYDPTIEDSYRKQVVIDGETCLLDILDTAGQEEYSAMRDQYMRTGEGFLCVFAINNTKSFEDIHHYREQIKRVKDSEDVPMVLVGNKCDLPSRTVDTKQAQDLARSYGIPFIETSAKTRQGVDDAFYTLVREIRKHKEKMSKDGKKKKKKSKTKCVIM
KRAS G12V-BRAF complex, sequence (P62937 whole entry): as the sequence (P62937 whole entry) above
Method: as §4

[2] = tested on: NCI-H358 cells (KRAS G12C); test: Cell viability assay (Cell Counting Kit-8), KRAS G12C; type: cell-based; conditions: Homo sapiens, NCI-H358, 72 hrs
Method: as §5, §6

[3] = tested on: phosphorylation of ERK, KRAS G12D in AGS cells; test: pERK inhibition assay, KRAS G12D in AGS cells; type: cell-based, human; conditions: Homo sapiens, 4 hours
Method: as §1, §2, §3

SW620 cells (KRAS G12V) = test: Cell viability assay (Cell Counting Kit-8), KRAS G12V; type: cell-based; conditions: Homo sapiens, SW-620, SW620, 72 hrs
Method: as §5, §6

[4] = tested on: phosphorylation of ERK, KRAS G12C in NCI-H358 cells; test: pERK inhibition assay, KRAS G12C in NCI-H358 cells; type: cell-based, human; conditions: Homo sapiens, NCI-H358, 4 hours
Method: as §1, §2, §3

Row | SMILES | IC50 [1] [nM] | IC50 (KRAS G12C-BRAF complex) [nM] | IC50 (KRAS G12D-BRAF complex) [nM] | IC50 (AGS cells (KRAS G12D)) [nM] | IC50 (KRAS G12V-BRAF complex) [nM] | IC50 [2] [nM] | IC50 [3] [nM] | IC50 (SW620 cells (KRAS G12V)) [nM] | IC50 [4] [nM]
1 | CCn1c(-c2cc(N3CCOCC3)cnc2[C@H](C)OC)c2c3cc(c(F)cc31)-c1csc(n1)C[C@H](NC(=O)[C@H](C(C)C)N(C)C(=O)N1CC(C(F)(F)F)C1)C(=O)N1CCC[C@H](N1)C(=O)OCC(C)(C)C2 (atropisomer, axis not shown; (M)) [Example 14, N-[(1S)-1-[[(7S,13S)-21-ethyl-24-fluoro-(20M)-20-[2-[(1S)-1-methoxyethyl]-5-morpholino-3-pyridyl]-17,17-dimethyl-8,14-dioxo-15-oxa-4-thia-9,21,27,28-tetrazapentacyclo[17.5.2.1^2,5.1^9,13.0^22,26]octacosa-1 (25),2,5 (28),19,22 (26),23-hexaen-7-yl]carbamoyl]-2-methyl-propyl]-N-methyl-3-(trifluoromethyl) azetidine-1-carboxamide] | 12 | > 10000 | > 10000 | > 10000 | > 10000 | 100 | 32 | 73 | 28
2 | CCn1c(-c2cc(N3CCOCC3)cnc2[C@H](C)OC)c2c3cc(c(F)cc31)-c1csc(n1)C[C@H](NC(=O)[C@H](C(C)C)N(C)C(=O)NCC(F)(F)F)C(=O)N1CCC[C@H](N1)C(=O)OCC(C)(C)C2 (atropisomer, axis not shown; (M)) [Example 13, (2S)-N-[(7S,13S)-21-ethyl-24-fluoro-(20M)-20-[2-[(1S)-1-methoxyethyl]-5-morpholino-3-pyridyl]-17,17-dimethyl-8,14-dioxo-15-oxa-4-thia-9,21,27,28-tetrazapentacyclo[17.5.2.1^2,5.1^9,13.0^22,26]octacosa-1 (25),2,5 (28),19,22 (26),23-hexaen-7-yl]-3-methyl-2-[methyl(2,2,2-trifluoroethylcarbamoyl)amino]butanamide] | 8 | > 10000 | > 10000 | 447 | > 10000 | 26 | 46 | 29 | 19
3 | CCn1c(-c2cc(N3CCN(C)CC3)cnc2[C@H](C)OC)c2c3cc(c(F)cc31)-c1csc(n1)C[C@H](NC(=O)[C@H](C(C)C)N(C)C(=O)N1CCOCC1)C(=O)N1CCC[C@H](N1)C(=O)OCC(C)(C)C2 (atropisomer, axis not shown; (M)) [Example 10, N-[(1S)-1-[[(7S,13S)-21-ethyl-24-fluoro-(20M)-20-[2-[(1S)-1-methoxyethyl]-5-(4-methylpiperazin-1-yl)-3-pyridyl]-17,17-dimethyl-8,14-dioxo-15-oxa-4-thia-9,21,27,28-tetrazapentacyclo[17.5.2.1^2,5.1^9,13.0^22,26]octacosa-1 (25),2,5 (28),19,22 (26),23-hexaen-7-yl]carbamoyl]-2-methyl-propyl]-N-methyl-morpholine-4-carboxamide] | 6 | 61 | 186 | 40 | 149 | 6 | 8 | 6 | 14
4 | CO[C@@H](C)c1ncc(N2CCN(CC(F)(F)F)CC2)cc1-c1c2c3cc(c(F)cc3n1CC(F)(F)F)-c1csc(n1)C[C@H](NC(=O)[C@H](C(C)C)N(C)C(=O)N1CC(N(C)C)C1)C(=O)N1CCC[C@H](N1)C(=O)OCC(C)(C)C2 (atropisomer, axis not shown; (M)) [Example 12, 3-(dimethylamino)-N-[(1S)-1-[[(7S,13S)-24-fluoro-(20M)-20-[2-[(1S)-1-methoxyethyl]-5-[4-(2,2,2-trifluoroethyl)piperazin-1-yl]-3-pyridyl]-17,17-dimethyl-8,14-dioxo-21-(2,2,2-trifluoroethyl)-15-oxa-4-thia-9,21,27,28-tetrazapentacyclo[17.5.2.1^2,5.1^9,13.0^22,26]octacosa-1 (25),2,5 (28),19,22 (26),23-hexaen-7-yl]carbamoyl]-2-methyl-propyl]-N-methyl-azetidine-1-carboxamide] | 4 | 29 | 140 | 38 | 85 | 9 | 15 | 7 | 6
5 | CO[C@@H](C)c1ncc(N2CCN(C)CC2)cc1-c1c2c3cc(c(F)cc3n1CC(F)(F)F)-c1csc(n1)C[C@H](NC(=O)[C@H](C(C)C)N(C)C(=O)N1CC(N(C)C)C1)C(=O)N1CCC[C@H](N1)C(=O)OCC(C)(C)C2 (atropisomer, axis not shown; (M)) [Example 1, 3-(dimethylamino)-N-[(1S)-1-[[(7S,13S)-24-fluoro-(20M)-20-[2-[(1S)-1-methoxyethyl]-5-(4-methylpiperazin-1-yl)-3-pyridyl]-17,17-dimethyl-8,14-dioxo-21-(2,2,2-trifluoroethyl)-15-oxa-4-thia-9,21,27,28-tetrazapentacyclo[17.5.2.1^2,5.1^9,13.0^22,26]octacosa-1(25),2,5 (28),19,22 (26),23-hexaen-7-yl]carbamoyl]-2-methyl-propyl]-N-methyl-azetidine-1-carboxamide] | 1 | 46 | 147 | 13 | 70 | 2 | 2 | 1 | 1
6 | CCn1c(-c2cc(N3CCN(CC(F)(F)F)CC3)cnc2[C@H](C)OC)c2c3cc(c(F)cc31)-c1csc(n1)C[C@H](NC(=O)[C@H](C(C)C)N(C)C(=O)N1CCOCC1)C(=O)N1CCC[C@H](N1)C(=O)OCC(C)(C)C2 (atropisomer, axis not shown; (M)) [Example 9, N-[(1S)-1-[[(7S,13S)-21-ethyl-24-fluoro-(20M)-20-[2-[(1S)-1-methoxyethyl]-5-[4-(2,2,2-trifluoroethyl)piperazin-1-yl]-3-pyridyl]-17,17-dimethyl-8,14-dioxo-15-oxa-4-thia-9,21,27,28-tetrazapentacyclo[17.5.2.1^2,5.1^9,13.0^22,26]octacosa-1 (25),2,5 (28),19,22 (26),23-hexaen-7-yl]carbamoyl]-2-methyl-propyl]-N-methyl-morpholine-4-carboxamide] | 9 | 49 | 225 | 91 | 124 | 24 | 23 | 14 | 24
